This note sets out measurements from patent US20260151413A1, “ANTICANCER DRUG CONJUGATES” (Ariel Scientific Innovations Ltd., priority 2022, published 2026).

Each structure is given as a SMILES string. Entries after “also recorded” stand apart in the source; their conditions may differ.

Experiment [1] deals with OCI-AML3, KG-1a, Granta, Jeko-1, BV-173 and MDA MB-231 cell-lines. In words: Low-dose proliferation test on aggressive cell-lines. To be noted: 50 nM-250 nM. The experiment is classed as cell-based. The method, then: The cytotoxicity of the synthesized chimeras on MDA MB-328 was determined by measuring the mitochondrial enzyme activity, using a commercial XTT assay kit (Biological Industries, Bet-Ha'emek, Israel). All samples contained DMSO (Sigma Aldrich) at final concentration […], XTT reagent was added, and the cells were re-incubated for additional 3 h. During that time, the absorbencies in the wells were measured with a TECAN Infinite M200 ELISA reader at both 480 and 680 nm. The difference between these measurements was used for calculating the % Growth Inhibition (GI) in test wells compared to two controls: cells that were exposed to the medium and solvent, and those which were exposed to a solvent-free medium. All the tests were done in tetra-plicate; each experiment was conducted three times.
Therefore, it was decided to reduce chimera 9 and the parental drug (doxorubicin) doses to 50-250 nM range on the most four aggressive hematological malignancies cell-lines (OCI-AML3, KG-1a, Granta and Jeko-1). Moreover, chimera 9 was examined on an additional aggressive leukemia cell line (BV-173) and breast cancer cell-line model (MDA MB-231).

Another experiment concerns MHH-CALL4. In words: WST-1 proliferation assay, MHH-CALL4. The experiment is classed as cell-based, human. To be noted: Homo sapiens, MHHCALL4; WST-1, 48 hours of treatment. The procedure: (§1) Albert Pinhasov (Ariel University, Ariel, Israel). […] Granta cells were kindly provided by Prof.
(§2) Table 3 [resents the calculated IC50 values (μM) for each chimera in different hematological malignancies cell-lines. The proliferation rate was measured by WST-1 assay after 48 hours of treatment. The result shown for each concentration point represents the […]

Another experiment relates to HEL. In words: WST-1 proliferation assay, HEL. The format is cell-based, human. To be noted: Homo sapiens, HEL; WST-1, 48 hours of treatment. The procedure:
as §1, §2

The subject of experiment [2] is aggressive papillary thyroid cancer cells. In words: Proliferation of aggressive papillary thyroid cancer cells. The experiment is classed as cell-based. To be noted: 10 nM and 100 nM, with respect to DMSO control. The procedure: Chimera 9 (also referred to herein as Doxorubizen) was evaluated in two different concentrations (10 nM and 100 nM) on aggressive papillary thyroid cancer and with respect to the parent anticancer drug Doxorubicin.

The subject of a further experiment is Rec-1. In words: WST-1 proliferation assay, Rec-1. To be noted: Homo sapiens, Rec1; WST-1, 48 hours of treatment. The format is cell-based, human. The procedure: as §1, §2
The test system of another experiment is GRANTA. In words: WST-1 proliferation assay, GRANTA. To be noted: WST-1, 48 hours of treatment. The format is cell-based. The procedure: as §1, §2
The subject of experiment [3] is OCI-AML3, KG-1a, Granta, Jeko-1 and BV-173 cells. In words: Mitochondrial depolarization (Muse Mitochondrial Kit). The experiment is classed as cell-based. To be noted: 50-250 nM depending on cell line, 48 hours, compared to the parental drug. The procedure: Changes in mitochondrial potential and cellular plasma membrane permeabilization, were determined with the Muse® Mitochondrial Kit (Luminex, USA). Briefly, Cells were treated with DMSO or the relevant chimera for 48 hours. The cells were incubated with MitoPotential working solution for 20 minutes at 37° C. in 5% CO2. Then, 5 μL Muse® MitoPotential 7-ADD reagent were added and the cells were incubated for 5 minutes at room temperature. The percentage of four cell populations: live (mitopotential+/7−AAD−), depolarized live (mitopotential−/7−AAD−), dead (mitopotential+/7−AAD+), and depolarized dead (mitopotential−/7−AAD+) were measured using the Muse® Cell Analyzer (Luminex, USA).
Chimera 9 was evaluated for its biological impact on mitochondrial function and cell death. To that end, the inventor treated the following cell lines OCI-AML3 (100 nM), KG-1a (100 nM), Granta (250 nM), Jeko-1 (50 nM) and BV-173 (50 nM) with doxorubicin or chimera 9.

Experiment [4] deals with Human primary anaplastic thyroid cancer (ATC) cells. In words: Vitality/proliferation of primary anaplastic thyroid cancer cells. To be noted: 100 nM, 250 nM, 500 nM; 3, 5 and 7 days. The format is cell-based. The method, then:
Human primary anaplastic thyroid cancer (ATC) cells were treated with chimera 9 (100 nM, 250 nM, and 500 nM), or Doxorubicin (100 nM, 250 nM, and 500 nM), or with vehicle, for 3, 5, and 7 days.

The subject of a further experiment is BV-173 cells. In words: DNA damage by dual staining of pH2A.X and pATM. The experiment is classed as cell-based. To be noted: 50 nM, 3 hours, compared to the parental drug. The procedure:
BV-173 cells (2×10^5 cells/well) were treated with DMSO, Doxorubicin or Doxorubizen. After incubation for 3 hours, phosphorylation level of ATM and H2AX was measured by Muse cell analyzer using Muse Multi-Color DNA Damage Kit (Luminex Corporation, Part number: MCH200107) according to manufacturer's instructions. Phosphorylation levels were determined using Guava software (Luminex/Millipore, USA, version 3.3).
BV-173 cells were exposed to 50 nM chimera 9 or the non-conjugated drug Doxorubicin, and DNA damage was analyzed after 3 hours by using dual staining of phospho-Histone H2A.X (Ser139) and phospho-ATM (Ser1981) antibodies.

For another experiment, the system named is MUTZ5. In words: WST-1 proliferation assay, MUTZ5. To be noted: Homo sapiens; WST-1, 48 hours of treatment. The format is cell-based, human. The procedure: as §1, §2
The subject of another experiment is JEKO-1. In words: WST-1 proliferation assay, JEKO-1. The format is cell-based, human. To be noted: Homo sapiens, JeKo-1; WST-1, 48 hours of treatment. The procedure: as §1, §2
The test system of another experiment is OCI-AML3. In words: WST-1 proliferation assay, OCI-AML3. The format is cell-based. To be noted: Homo sapiens, OCI-AML-3; WST-1, 48 hours of treatment. The procedure:
as §1, §2

`COC(=O)N(C)/N=N/c1ccc(CNC2CC(OC3CC(O)(C(=O)CO)Cc4c(O)c5c(c(O)c43)C(=O)c3c(OC)cccc3C5=O)OC(C)C2O)cc1` (stereo not drawn) [Chimera 9, (E)-methyl-3-(4-(((3-hydroxy-2-methyl-6-((3,5,12-trihydroxy-3-(2-hydroxyacetyl)-10-methoxy-6,11-dioxo-1,2,3,4,6,11-hexahydrotetracen-1-yl)oxy)tetrahydro-2H-pyran-4-yl)amino)methyl)phenyl)-1-methyltriaz-2-ene-1-carboxylate]: the “proliferation rate versus corresponding controls” value in experiment [1] is given as “significant reduction in the proliferation rate”. For the same compound, the 50% inhibitory concentration (IC50) was found to be 1140 nM in the experiment with MHH-CALL4; 970 nM with HEL; 520 nM in the experiment on Rec-1; 2590 nM in the experiment with GRANTA; 520 nM in the experiment on MUTZ5; 850 nM in the experiment with JEKO-1. For the same compound, the midpoint of inhibition with OCI-AML3, the IC50, lay at 1240 nM. Besides, the “proliferation of thyroid cancer cells” value in experiment [2] was “reduce significantly the proliferation”. The mitochondrial membrane potential entry in experiment [3] is “significantly collapsed mitochondrial membrane potential”. Besides, the “vitality/proliferation of primary human ATC cells” value in experiment [4] is given as “reduced the vitality/proliferation of primary human ATC cells significantly; also recorded: higher effect”. Besides, the “DNA damage: co-activation of pH2A.X and pATM” value in the experiment with BV-173 cells was “significant co-activation of pH2A.X and pATM”.
